Reference: patent publication US6653479B1, “Crystalline form of 6-hydroxy-3-(4-[2-(piperidin-1-yl)ethoxy]phenoxy)-2-(4-methoxyphenyl)benzo[b] thiophene hydrochloride” (Eli Lilly and Company, priority 1999, dated 2003)

Assays:
Type in all cases: physicochemical
[1] = Hygroscopicity (moisture sorption isotherms, VTI method)
Description: Hygroscopicicity studies were performed on F-I and F-III. Upon initial exposure of the samples to approximately 5% RH, there was an immediate weight gain of 1.5% and 1.7% moisture for F-I and F-III, respectively, equivalent to approximately 0.5 mole of water. Both forms show a continuous sorption of moisture through the entire humidity range, which is likely due to incorporation of water molecules in the lattices.
The moisture sorption profiles for F-I and F-III reveal that these forms are essentially non-stoichiometric hydrates. At ambient relative humidity (about 50% RH), F-I contains approximately 1.7% water, corresponding to 0.5 moles of water, while F-III has sorbed about 3.0% water which corresponds to about 0.85 moles of water. The bulk forms of F-I and F-III rapidly equilibrate with the atmosphere, so that the water content observed by analytical techniques is a reflection of the relative humidity at the time of data collection. Lot-to-lot differences observed in the DSC data likely results from the samples being hydrated to different extents due to different ambient storage conditions.
Hygroscopicity measurements were made for F-I and F-III using the VTI method as follows. Each sample was dried under vacuum at 60° C. until no further weight loss was detected, at which time the sample chamber was brought to 0% relative humidity. Moisture sorption isotherms were obtained at 25° C. using a VTI vacuum moisture balance with the following conditions: sample size 10-15 mg, adsorption/desorption range 0-95% relative humidity, step interval 5%, sample interval 10 minutes.

[2] = Stability at different relative humidities (XRD of stored samples); settings: entire relative humidity range
Description: XRD patterns were obtained for samples of F-I and F-III stored at different relative humidities (0, 22, 50, and 80%). There is a gradual shifting of the initial (0% RH) F-III peaks at about 13.8, 17.6, 18.0, 20.5 and 24.0° in 2θ as well as slight shifting of less intense peaks, as the relative humidity is increased. These observed changes in the XRD patterns of F-III indicate that the unit cell dimensions are changing, presumably to accommodate weakly held water molecules as the relative humidity is increased.
A similar experiment was carried out on F-I to determine whether varying the relative humidity would have a similar effect on its lattice (0, 25, 52, 73 and 95% RH). Very slight shifting of the 0% RH peaks at about 7.7, 18.3, 18.5, 20.5, 20.8° in 2θ is observed as the relative humidity is increased. […] The shifting of peaks in the XRD patterns of F-I is less dramatic than the peak shifts observed as F-III was exposed to different relative humidities.
XRD patterns were obtained on a Siemens D5000 X-ray powder diffractometer, equipped with a CuKα source (λ=1.54056 Å) and a Kevex solid-state detector, operating at 50 kV and 40 mA. Each sample was scanned between 4° and 35° in 2θ. Samples were allowed to equilibrate for at least 30 minutes at the desired temperature and/or relative humidity before data collection.

[3] = Comparison of aqueous solubility and dissolution rate; settings: F-I compared with F-III
[4] = Stability at ambient temperature relative to arzoxifene of '474; settings: relative to the arzoxifene produced by the procedures taught in '474
[5] = ambient relative humidity (about 50% RH)

water content [1, 5]: approximately 1.7% | water content in moles of water [1, 5]: 0.5 mol | water equivalent of the weight gain ([1]; approximately 5% RH): approximately 0.5 mole | immediate weight gain of moisture ([1]; initial exposure to approximately 5% RH, 25° C.): 1.5% | aqueous solubilities [3]: comparable | dissolution rates [3]: comparable | stability at ambient temperature [4]: more stable
SMILES: COc1ccc(-c2sc3cc(O)ccc3c2Oc2ccc(OCCN3CCCCC3)cc2)cc1.Cl [F-I, 6-hydroxy-3-(4-[2-(piperidin-1-yl)ethoxy]phenoxy)-2-(4-methoxyphenyl)benzo[b]thiophene hydrochloride]
stability over relative humidity range [2]: stable over the entire relative humidity range
